Experimental data as given in paper PMC7998705, “Dose-Dependent Solubility–Permeability Interplay for Poorly Soluble Drugs under Non-Sink Conditions” (Pharmaceutics, 2021).
Values after ≈ are worked out from the molar mass of the structure shown. One block for each molecule: values may come before it.

Tests used:
[1] = Flux measurements by MicroFlux; settings: for Papp: not told, sink conditions, average ± SD (n = 3); for Flux in pH 6.5 buffer + 0.05% SLS compared with pH 6.5 buffer: sink conditions (5 μg/mL griseofulvin, 100 μg/mL triamcinolone)
Experimental: (§1) The concentration–time profiles were determined via manual sampling from the donor chambers and acceptor chambers during flux measurements. At 0, 30, 60, 120, 240, and 360 min, 100 μL of the acceptor chamber solution was withdrawn and diluted to 100 μL (2× dilution) of 3:2 DMA:ethylene glycol (v/v). At the same time point, 400 μL of the donor chamber solution was withdrawn and filtered through a polytetrafluoroethylene (PTFE) membrane filter of 0.22 μm pose size. Then, 100 μL of the filtered solution was diluted to 100 μL (2× dilution) of 3:2 DMA:ethylene glycol (v/v). The sample concentration was determined by ultra-high-performance liquid chromatography (UHPLC).
From the obtained concentration–time profiles in the acceptor chambers, the flux (J) was calculated. The flux refers to the mass transfer through the membrane, and it is defined as the total amount of material crossing one unit area of the membrane per unit time, as described by Equation (11):(11) J (t)=1/A·dm/dt= V/A·dC(t)/dt where dm/dt (μg/mL) is the total amount of material crossing the membrane per unit time, A is the area of the membrane (1.54 cm^2), V is the volume of the acceptor chamber (20 mL), and dC(t)/dt (μg/(mL⋅min)) is the slope of the concentration–time profiles in the acceptor chambers. Time intervals were selected in each test to exclude the lag time of the concentration–time profile and calculate the initial flux. […] Based on Fick’s first law, assuming the sink condition in the acceptor chambers, the flux can be described by Equation (12):(12) J (t)=PappCD(t) where Papp is the apparent permeability of drugs and CD (t) is the drug concentration in the donor chambers.
The sample concentrations were measured on a Waters (Milford, MA) Acquity UPLC H-Class system. An Acquity UPLC® BEH Shield RP18 1.7 μm, 2.1 × 50 mm, was used for chromatographic separation. A gradient mobile phase, spanning 95:5 to 0:100 (v/v) water:MeCN (both containing 0.05%TFA) over 2.0 min, was pumped at a flow rate of 1.0 mL/min. […] The injection volume and ultraviolet (UV) wavelength for triamcinolone were 1 μL and 292 nm, respectively.

[2] = Theoretical calculation about permeability; settings: for Papp: not told; for Calculated Pm (app): Equation (3); for Calculated Daq (app): Equation (5), hUWL (app) = 100 μm; for Calculated Pm (U): pH 6.5 buffer; for Apparent permeability and flux reduced to (fraction): calculated, sink conditions, donor 5 μg/mL
Experimental: Based on Fick’s first law, flux in the drug permeation can be expressed as shown in Equation (1): [36, 43]
As described in the introduction, overall permeation can be divided into membrane permeation and UWL permeation.
Pm (app) is calculated using the fraction of UFDs (FU) as shown in Equation (3):(3) Pm (app)= FUPm (U) where Pm (U) is the intrinsic permeability of UFDs.
PUWL (app) can be expressed using the apparent aqueous diffusivity (Daq (app)) from Fick’s first law as shown in Equation (5): (5) PUWL (app)= Daq (app)/hUWL (app) where hUWL (app) is the apparent thickness of the UWL. When there are no solubilizer additives in the drug formulation or test media in the permeability measurements, Equation (5) can be described as shown in Equation (6):(6) PUWL (U)= Daq (U)/hUWL (U) where hUWL (U) is the intrinsic thickness of the UWL and Daq (U) is the intrinsic aqueous diffusivity of UFDs. The thickness of the UWL can be determined based on rotation speed in the flux experiment. If the rotation speed is constant, we can assume that the thickness of the UWL is constant, independent of the addition of solubilizer additives, as shown in Equation (7):(7) hUWL (app)= hUWL (U)
Substituting hUWL (app) of Equation (5) and hUWL (U) of Equation (6) for Equation (7), PUWL (app) is described as shown in Equation (8):(8) PUWL (app)= PUWL (U)×Daq (app)/Daq (U)
The apparent aqueous diffusivity (Daq (app)) is a combined total of each fraction of aqueous diffusivity as shown in Equation (9):(9) Daq (app)= FUDaq (U) + (1−FU)Daq (B) where FU is the same fraction of UFDs as in Equation (4) and Daq (B) is the aqueous diffusivity of drug molecules bound to solubilizer additives. PUWL (app) can be calculated by Equations (6), (8), and (9) as shown in Equation (10):(10) PUWL (app)= 1/hUWL (app) {FUDaq(U) + (1−FU)Daq (B)}
Using the MW of the model compounds, each Daq (U) was calculated (calculated Daq (U) in Table 4). The UWL thickness (hUWL (app) or hUWL (U)) for the MicroFlux^TM measurements in this study was estimated to be around 100 μm based on previous studies. The intrinsic UWL permeability of UFDs (PUWL (U)) was then calculated by Equation (6) (calculated PUWL (U) in Table 4).
The apparent membrane permeability (Pm (app)) was calculated by Equation (3) using the fraction of UFDs (FU) in Table 3 and Pm (U) (calculated Pm (app) in Table 5). […] The apparent aqueous diffusivity (Daq (app)) was calculated by Equation (5) using PUWL (app) and hUWL (app) = 100 μm (calculated Daq (app) in Table 5). Substituting FU, Daq (app), and Daq (U) in Equation (9), the aqueous diffusivity of drug molecules bound to SLS (Daq (B)) was calculated (calculated Daq (B) in Table 5). As for triamcinolone, Daq (B) was not calculated in this study. […] As the aggregated number of SLS in aqueous solutions was reported to be 62, their micellar weight appeared to be around 18,000 Da. […] Assuming this micellar size is constant, permeability and flux could be calculated by Equation (10) and Equation (12) using the apparent solubility.
When pH 6.5 buffer is in the donor chamber, the apparent UWL thickness is expressed using Equations (2) and (6) as shown in Equation (14):(14) hUWL (app)=Daq (U)(1/Papp−1/Pm (U))

[3] = set-up: method as in PMID 17724660, PMID 8668668, PMID 1808607; settings: partitioning between octanol and water; cited from earlier work
[4] = 37 °C; cited from earlier work
[5] = set-up: method as in PMID 20006692; settings: 500 mg dose; cited from earlier work
[6] = pH 6.5
Experimental: as §1
(§2) The sample concentrations were measured on a Waters (Milford, MA) Acquity UPLC H-Class system. An Acquity UPLC® BEH Shield RP18 1.7 μm, 2.1 × 50 mm, was used for chromatographic separation. A gradient mobile phase, spanning 95:5 to 0:100 (v/v) water:MeCN (both containing 0.05%TFA) over 2.0 min, was pumped at a flow rate of 1.0 mL/min.

[7] = physchem; settings: 37 °C, thermodynamic from solid
Experimental: as §1, §2

[8] = pH 6.5, Measured Papp (U), pH 6.5 buffer
[9] = pH 6.5, Measured Papp, pH 6.5 buffer + 0.05% SLS
[10] = pH 6.5, pH 6.5 buffer + 0.05% SLS, read-out: Calculated Papp (converted)
[11] = pH 6.5, pH 6.5 buffer, read-out: Calculated Papp (U) (converted)

- Sample concentration in the donor chamber ([1]; 500, 2000 and 10,000 μg/mL doses (non-sink), pH 6.5 buffer and pH 6.5 buffer + 0.05% SLS): about 200 μg/mL
- Papp [1, 8]: 5.07 ×10⁻⁶ cm/s
- Papp [1, 9]: 4.38 ×10⁻⁶ cm/s
- Flux and donor concentration at the 10,000 μg/mL dose, higher than at 500 and 2000 μg/mL doses ([1]; pH 6.5 buffer + 0.05% SLS, non-sink conditions): about 10%
- Flux in pH 6.5 buffer + 0.05% SLS compared with pH 6.5 buffer [1]: almost similar values
- Papp [2, 10]: 4.38 ×10⁻⁶ cm/s
- Papp [2, 11]: 5.07 ×10⁻⁶ cm/s
- Calculated Pm (app) ([2]; pH 6.5 buffer + 0.05% SLS): 5 ×10⁻⁶ cm/s
- Calculated Daq (app) ([2]; pH 6.5 buffer + 0.05% SLS): 3.54 × 10^−7 cm^2/s
- Calculated Pm (U) ([2]; Equation (2)): 5.12 ×10⁻⁶ cm/s
- Calculated Pm (U) ([2]; Equation (2), listed as triamcinolone): around 0.0003 cm/min
Structure (SMILES): C[C@]12C=CC(=O)C=C1CC[C@H]1[C@@H]3C[C@@H](O)[C@](O)(C(=O)CO)[C@@]3(C)C[C@H](O)[C@@]12F [Triamcinolone]
- Log P [3]: 1.03 [40, 42]

Structure (SMILES): COC1=CC(=O)C[C@@H](C)[C@]12Oc1c(Cl)c(OC)cc(OC)c1C2=O [Griseofulvin]
- Aqueous solubility [4]: 29.9 [40, 41] μg/mL
- Sample concentration in the donor chamber ([1]; 50, 200 and 1000 μg/mL doses (non-sink), pH 6.5 buffer): about 10 μg/mL
- Sample concentration in the donor chamber ([1]; 50, 200 and 1000 μg/mL doses (non-sink), pH 6.5 buffer + 0.05% SLS): about 25 μg/mL
- Apparent permeability in pH 6.5 buffer + 0.05% SLS compared with pH 6.5 buffer ([1]; based on Equation (12)): almost half
- Increase of total permeated amount when the dose amount exceeded solubility ([1]; donor concentration almost constant): 20–30%
- Flux increase depending on the dose amount ([1]; non-sink conditions, both pH 6.5 buffer and pH 6.5 buffer + 0.05% SLS): 10–30%
- Papp [1, 8]: 247 ×10⁻⁶ cm/s
- Papp [1, 9]: 108 ×10⁻⁶ cm/s
- Flux in pH 6.5 buffer + 0.05% SLS compared with pH 6.5 buffer [1]: almost half
- Apparent permeability and flux reduced to (fraction) ([2]; apparent solubility increased by 5 times): about 1/4
- Apparent permeability and flux reduced to (fraction) ([2]; apparent solubility increased by 10 times): 1/7
- Calculated Daq (B) ([2]; drug molecules bound to SLS, Equation (9)): 8.37 × 10^−7 cm^2/s
- Papp [2, 10]: 108 ×10⁻⁶ cm/s
- Papp [2, 11]: 247 ×10⁻⁶ cm/s
- Calculated PUWL (app) ([2]; pH 6.5 buffer + 0.05% SLS, Equation (2)): 255 ×10⁻⁶ cm/s
- Calculated Pm (app) ([2]; pH 6.5 buffer + 0.05% SLS): 187 ×10⁻⁶ cm/s
- Calculated Daq (app) ([2]; pH 6.5 buffer + 0.05% SLS): 2.56 × 10^−6 cm^2/s
- Calculated Pm (U) ([2]; Equation (2)): 473 ×10⁻⁶ cm/s
- Increase of in vivo permeability and in vivo drug absorption by solid drugs in the UWL [5]: about twofold
- Solubility change by the addition of 0.05% SLS [6]: about 2.5 fold
- UFD Amount [6]: 10.75 µg/mL
- solubility ([7]; pH 6.5, aqueous buffer): 10.8 ± 0.38 µg/mL (≈ 30.5 µM)
- solubility ([7]; pH 6.5, aqueous with cosolvent or surfactant or cyclodextrin): 27.4 ± 0.07 µg/mL (≈ 77.7 µM)
